Assay results: patent US9737525B2, “Small molecule activators of NRF2 pathway” (The General Hospital Corporation, priority 2013, dated 2017)

How the values were obtained:
[1] = tested on: α-tubulin K40 and histone H3 acetylation; assay: Acetylation of SIRT2 substrates in wild type primary cortical neurons; assay type: cell-based, mouse
Protocol: To assess protein levels, cell extracts were prepared from cells washed with PBS and lysed with buffer containing 2% SDS, Complete EDTA-free Protease Inhibitor Cocktail (Roche) and 1 mM phenylmethylsulfonyl fluoride. To prepare brain extracts for analysis, frozen mouse cortical tissues were homogenized in PBS containing protease inhibitors with an Kontes Pellet Pestle (Kimble/Kontes). They were later sonicated and lysed overnight at 4° C. in 2× volume of lysis buffer containing 2% SDS and protease inhibitors. Protein concentrations in ST14A cell extracts and homogenized cortical tissues were evaluated using a BCA analysis kit and normalized. Samples were prepared in a SDS buffer containing DTT and separated on bis-acrylamide protein gels via electrophoresis and transferred onto a 0.2 μm PVDF membrane). Membranes were probed for NQO1 (Sigma N5288, 1:1,000), GCLM, (Abcam ab126704, 1:800), SIRT2 (Sigma S8447, 1:2,500), histone H3 (Cell Signaling 4499, 1:2,000), acetylated H3 (K56) (Millipore 04-1135, 1:500), TNFα (Abcam ab1793, 1:1,500), GADPH (Millipore MAB374, 1:10,000), actin (Sigma A2066, 1:1250), α-tubulin (Sigma T6074, 1:20,000), and acetylated α-tubulin (Sigma T6793, 1:2,500) overnight in 5% milk in PBST at 4° C. on a rocker. Membranes were thrice washed in PBST for 15 min on a shaker and incubated in either an anti-rabbit-HRP (Bio-Rad 170-5046, 1:10,000) or anti-mouse-HRP (Sigma A3682, 1:4,000) secondary solution as appropriate in 3% milk in PBST for 1 hr at room temperature on a rocker. After four washes of 15 min in PBST on a shaker, blots were visualized using SuperSignal West Pico Chemiluminescent Substrate (Pierce 34080) or SuperSignal West Dura Extended Duration Substrate (Thermo 34075) and exposed on Scientific Imaging Film (Kodak 864 6770).
Based upon the robust neuroprotection observed in HD model systems expressing both mutant HTT fragments and full-length mutant HTT, verification of the bioactivity of MIND4 as SIRT2 inhibitor in primary neurons was sought. […]

[2] = tested on: primary neurons from HD140CAG mice; assay: ROS detection assay in primary neurons; assay type: cell-based, mouse; details: 0.1 μM and 0.25 μM, 4 days
Protocol: Elevated levels of reactive oxygen species (ROS) have been implicated in normal brain aging and in the pathogenesis of numerous neurodegenerative diseases, including HD. The neuroprotective properties of NRF2 activation have been reported to boost antioxidant defenses in astrocytes, but in this study it was determined whether NRF2 induction mediates protective antioxidant activity in mutant Htt expressing primary neurons. It was determined whether NRF2 activation could reduce mHtt associated ROS in primary neurons isolated from embryonic brains (E15-E17) of HD140CAG mice, which display strikingly elevated ROS levels compared to cells derived from wild type mice. HD and wild type neurons were treated with MIND4-17 at 0.1 μM and 0.25 μM doses for 4 days, and ROS were measured.
ROS detection in primary neurons was performed as previously described by [Valencia, 2013]. Briefly, neurons were plated on glass coverslips pretreated with poly-L-lysine for 24 hours. At 4 DIV wild type and HDQ140 neurons were treated with compound MIND4-17 at 4 DIV, then ROS were measured in live cells at 8 DIV. Prior to ROS measurements, neurons were loaded with […] of the non-fluorescent ROS-detector carboxy-DCFDA-AM (Invitrogen) for 15 min at 37° C. […] Images were acquired through a 60× oil immersion Nikon Apo objective DIC H (NA 1/4 1.4) and quantified using ImageJ software (NIH).

primary human monocytes = assay: Cytokine production by primary monocytes from HD patients and controls; assay type: cell-based; set-up: Levels of IL-1, IL-6, IL-8 and TNFα: dose or concentration left out as unconfirmed
Protocol: Blood samples were obtained from control subjects and genetically-diagnosed, symptomatic HD patients. Patients were classed as having early or moderate-stage disease using the total functional capacity (TFC) scale (13-7, early; 6-3, moderate) [Marder, 2000]. Subjects with inflammatory or infective conditions were excluded. Cells were isolated from whole blood, as previously described [Björkqvist, 2008]. In brief, 50 ml whole blood was collected in heparin (CP Pharmaceuticals) and leukocytes were isolated by density gradient centrifugation. Monocytes were sorted via magnetic cell separation columns using anti-CD14 microbeads (Miltenyi Biotec). Monocytes were seeded at 1×10^5 cells per well in 96-well PRIMARIA™ tissue culture plates (BD Falcon) with R10 media (RPMI culture medium supplemented with 10% FCS, 2 mM L-glutamine, 50 U/ml penicillin and […] streptomycin (Invitrogen)). […] Supernatants were analyzed using the human pro-inflammatory II (4-plex) MSD assay measuring IL-1b, IL-6, IL-8 and TNFα. […] Cell death was measured using a LDH assay (CytoTox-Fluor™ Cytotoxicity Assay from Promega). Normalized cytokine levels have been analyzed on the logarithmic scale due to their skewed distribution. […] Contrasts of interest were then calculated using linear combinations of parameter estimates.

## O=[N+]([O-])c1ccc(Sc2nnc(COc3ccccc3)n2-c2ccccc2)c2ncccc12 [MIND4, 5-nitro-8-{[5-(phenoxymethyl)-4-phenyl-4H-1,2,4-triazol-3-yl]thio}quinoline]
[1]; primary neurons, 6 hr
  Acetylation of histone 3 K56 and K27: increased acetylation of histone 3 K56 and K27
[1]; wild type primary cortical neurons (DIV11), 6 hours
  Acetylation of α-tubulin and Histone 3 K56: only subtle increases of acetylation

## O=[N+]([O-])c1ccc(Sc2nnc(COc3ccccc3)n2-c2ccccc2)nc1 [MIND4-17]
[2]
  Basal ROS levels in wild type neurons: No effects on basal ROS levels were detected
  ROS levels in HD neurons: significant reduction of ROS
Primary human monocytes; HD patient cells
  Levels of IL-1, IL-6, IL-8 and TNFα: significant decrease in the levels of all four cytokines
Primary human monocytes; monocytes from HD patients and normal subjects, LPS and IFN-g stimulation, different doses
  IL-1, IL-6, IL-8 and TNFα production: reduced IL-1, IL-6, IL-8, and TNFα production
